In paper PMC6152005, “Fluorination of Naturally Occurring N^6-Benzyladenosine Remarkably Increased Its Antiviral Activity and Selectivity” (Molecules : A Journal of Synthetic Chemistry and Natural …, 2017):

Key:
[1] = system: EV71 strain BrCr; experiment: Cytopathic effect (CPE) reduction antiviral assay against EV71 in RD cells (MTS/PMS readout); format: cell-based, human enterovirus 71; conditions: for EC50: Enterovirus A, EV71 BrCr in RD cells, inhibition of virus-induced cell death, MTS/PMS, at least three independent dose-response curves; for SI (Selectivity Index): SI = CC50/EC50; for SI (Selectivity Index) / increase of SI relative to BAPR: EV71 BrCr, RD cells
Procedure: (§1) (Table 2). As previously mentioned, modifications of the N^6-substituent (linker) of the BAPR scaffold led to a remarkable increase of selectivity. Here, we produced a series of BAPR analogues to evaluate the effect of the fluorination of BAPR on the replication of EV71. A cytopathic effect (CPE) reduction assay was performed with the newly synthetized analogues (compounds 5–11) in rhabdomyosarcoma (RD) cells. BAPR, N^6-isopenthenyladenosine, and N^6-furfuryladenosine were included in the screening, and the toxicity of all of the aforementioned compounds was evaluated in parallel on treated-uninfected cells.
An EV71 BrCr laboratory-adapted strain was used at a low multiplicity of infection (MOI) in a standardized antiviral assay. Briefly, freshly harvested rhadbdosarcoma (RD) cells were seeded in a 96-well plate (2 × 10^4 cells/well) and incubated at 37 °C in 5% CO2. The next day, a serial dilution of the compounds was prepared in assay medium and added to the RD cells. Then, the cells were supplemented with the viral suspension. […] Subsequently, the antiviral effect was quantified using a colorimetric readout with 3-(4,5-dimethylthiazol-2-yl)-5-(3-carboxymethoxyphenyl)-2-(4-sulfophenyl)-2H-tetrazolium/phenazine methosulfate (MTS/PMS method), and the concentration of compound at which a 50% inhibition of virus-induced cell death would be observed (EC50) was calculated from the antiviral dose-response curves. A similar assay setup was used to determine the adverse effect of the compound on uninfected, treated cells for the calculation of the CC50 (concentration of compound that reduces overall cell health with 50% as determined by the MTS/PMS method). […]

[2] = Toxicity on treated, uninfected RD cells (MTS/PMS readout); format: cell-based; conditions: human, uninfected rhabdomyosarcoma (RD) cells, uninfected, treated RD cells; MTS/PMS; at least three independent dose-response curves
Procedure: as §1
(§2) An EV71 BrCr laboratory-adapted strain was used at a low multiplicity of infection (MOI) in a standardized antiviral assay. Briefly, freshly harvested rhadbdosarcoma (RD) cells were seeded in a 96-well plate (2 × 10^4 cells/well) and incubated at 37 °C in 5% CO2. The next day, a serial dilution of the compounds was prepared in assay medium and added to the RD cells. Then, the cells were supplemented with the viral suspension. […] Subsequently, the antiviral effect was quantified using a colorimetric readout with 3-(4,5-dimethylthiazol-2-yl)-5-(3-carboxymethoxyphenyl)-2-(4-sulfophenyl)-2H-tetrazolium/phenazine methosulfate (MTS/PMS method), and the concentration of compound at which a 50% inhibition of virus-induced cell death would be observed (EC50) was calculated from the antiviral dose-response curves. A similar assay setup was used to determine the adverse effect of the compound on uninfected, treated cells for the calculation of the CC50 (concentration of compound that reduces overall cell health with 50% as determined by the MTS/PMS method). The selectivity index (SI) was calculated as a ratio of […].

[3] = system: rhabdomyosarcoma (RD) cells; experiment: as above; format: cell-based; conditions: for cytotoxicity (in words): uninfected RD cells, highest concentration tested
Procedure: as §1, §2

In the case of `OC[C@H]1O[C@@H](n2cnc3c(NCc4ccccc4)ncnc32)[C@H](O)[C@@H]1O` [Compound 1, N^6-benzyladenosine], the EC50 [1] is reported as 0.28 ± 0.05 µM, the “SI (Selectivity Index)” value [1] is reported as 15 and the CC50 [2] is reported as 4.3 ± 1.6 µM.
In the case of `CC(C)=CCNc1ncnc2c1ncn2[C@@H]1O[C@H](CO)[C@@H](O)[C@H]1O` [Compound 2, N^6-isopenthenyladenosine, reference compound], the EC50 [1] is reported as 1 ± 0.2 µM, the “SI (Selectivity Index)” value [1] is reported as 6.0 and the CC50 [2] is reported as 6 ± 0.6 µM.
For `OC[C@H]1O[C@@H](n2cnc3c(NCc4ccco4)ncnc32)[C@H](O)[C@@H]1O` [Compound 3, N^6-furfuryladenosine, reference compound], the EC50 [1] was 1.4 ± 0.3 µM, the “SI (Selectivity Index)” value [1] was 5.6 and the CC50 [2] was 7.8 ± 3.4 µM.
In the case of `OC[C@H]1O[C@@H](n2cnc3c(NCc4ccccc4F)ncnc32)[C@H](O)[C@@H]1O` [Compound 5, N^6-(2-fluorobenzyl) adenosine], the EC50 [1] is reported as 0.3 ± 0.05 µM, the “SI (Selectivity Index)” value [1] is reported as 44 and the CC50 [2] is reported as 13.3 ± 3.7 µM.
For `OC[C@H]1O[C@@H](n2cnc3c(NCc4cccc(F)c4)ncnc32)[C@H](O)[C@@H]1O` [Compound 6, N^6-(3-fluorobenzyl) adenosine], the EC50 [1] was 0.24 ± 0.09 µM, the “SI (Selectivity Index)” value [1] was 26 and the CC50 [2] was 6.2 ± 1.8 µM.
In the case of `OC[C@H]1O[C@@H](n2cnc3c(NCc4ccc(F)cc4)ncnc32)[C@H](O)[C@@H]1O` [Compound 7, N^6-(4-fluorobenzyl) adenosine], the “increase of SI relative to BAPR” value ([1]; relative to BAPR) is reported as 1.25 times, the EC50 [1] is reported as 0.14 ± 0.05 µM and the “SI (Selectivity Index)” value [1] is reported as 19. For the same compound, the CC50 [2] was 2.7 ± 0.9 µM.
In the case of `OC[C@H]1O[C@@H](n2cnc3c(NCc4c(F)cccc4F)ncnc32)[C@H](O)[C@@H]1O` [Compound 8, N^6-(2,6-difluorobenzyl) adenosine], the EC50 [1] is reported as 0.21 ± 0.01 µM, the “SI (Selectivity Index)” value [1] is reported as greater than 1210 and the CC50 ([3]; uninfected, treated RD cells, MTS/PMS, at least three independent dose-response curves) is reported as greater than 254 µM. The CC50 [2] was greater than 250 µM.
In the case of `OC[C@H]1O[C@@H](n2cnc3c(NCc4ccccc4C(F)(F)F)ncnc32)[C@H](O)[C@@H]1O` [Compound 9, N^6-(2-trifluoromethylbenzyl) adenosine], the EC50 [1] is reported as 1 ± 0.1 µM, the “SI (Selectivity Index)” value [1] is reported as greater than 235 and the “cytotoxicity (in words)” value [3] is reported as “did not show any cytotoxicity”. For the same compound, the CC50 [2] was greater than 235 µM.
In the case of `OC[C@H]1O[C@@H](n2cnc3c(NCc4cccc(C(F)(F)F)c4)ncnc32)[C@H](O)[C@@H]1O` [Compound 10, N^6-(3-trifluoromethylbenzyl) adenosine], the “increase of SI relative to BAPR” value ([1]; relative to BAPR) is reported as 230 times, the “improvement (gain) in potency as compared to BAPR” value ([1]; EV71 replication in RD cells, relative to BAPR) is reported as “four-fold” and the EC50 [1] is reported as 0.068 ± 0.001 µM. The “SI (Selectivity Index)” value [1] was greater than 3456, the “cytotoxicity (in words)” value [3] was “did not show any cytotoxicity” and the CC50 [2] was greater than 235 µM.
For `OC[C@H]1O[C@@H](n2cnc3c(NCc4ccc(C(F)(F)F)cc4)ncnc32)[C@H](O)[C@@H]1O` [Compound 11, N^6-(4-trifluoromethylbenzyl) adenosine], the EC50 [1] was 1 ± 0.1 µM, the “SI (Selectivity Index)” value [1] was greater than 235 and the “cytotoxicity (in words)” value [3] was “did not show any cytotoxicity”. It also gave a CC50 [2] greater than 235 µM.
